Reference: publication PMC9394284, “Discovery of Novel Dual Adenosine A2A and A1 Receptor Antagonists with 1H-Pyrazolo[3,4-d]pyrimidin-6-amine Core Scaffold as Anti-Parkinson’s Disease Agents” (Pharmaceuticals, 2022)

Assays:
[1] = biological target: T1, A2B receptors (Homo sapiens, UniProt P29275); test: radioligand binding to human A2B receptors, HEK-293 membranes, [3H]MRS1754
T1 construct: purchased PerkinElmer ES-013-M
T1 sequence (P29275 1-332): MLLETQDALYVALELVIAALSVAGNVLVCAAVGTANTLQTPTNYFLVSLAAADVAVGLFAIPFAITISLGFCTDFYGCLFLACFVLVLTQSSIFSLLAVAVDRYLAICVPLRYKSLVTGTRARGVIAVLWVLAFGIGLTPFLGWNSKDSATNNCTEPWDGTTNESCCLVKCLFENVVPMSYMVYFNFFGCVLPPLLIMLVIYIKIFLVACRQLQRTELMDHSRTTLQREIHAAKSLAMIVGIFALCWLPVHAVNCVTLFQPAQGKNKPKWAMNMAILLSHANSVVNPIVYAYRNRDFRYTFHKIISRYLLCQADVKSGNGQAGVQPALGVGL
Protocol: (§1) The radioligand-binding assays for adenosine receptors were performed at Eurofins Discovery Services (Panlabs, Taiwan). Briefly, stock solutions of the compounds were prepared in DMSO and further diluted with the incubation buffer to the desired concentration. Final DMSO concentrations in the assay were 1.0%. For adenosine A1 screening, a 10 μg aliquots of membrane preparations from human recombinant CHO-K1 cells stably expressing A1 receptors (CHO-K1-hA1AR clone3, EPDST, R200510) were incubated with 1 nM [^3H]DPCPX in incubation buffer (20 mM HEPES, pH 7.4, 10 mM MgCl2, 100 mM NaCl 1.40 nM) for 90 min at 25 °C. Nonspecific binding was estimated in the presence of 100 μM R(-)-PIA. Membranes were filtered and washed 3 times and the filters were counted to determine specifically bound [^3H]DPCPX. Chemical compounds were screened at 10 μM. For A2A screening, membrane preparations from human recombinant HEK-293 cells stably expressing A2A receptors (PerkinElmer, RBHA2AM) were incubated with 0.05 μM [^3H]CGS-21680 in incubation buffer (50 mM Tris-HCl, pH 7.4, 10 mM MgCl2, 1 mM EDTA, 2 U/mL Adenosine Deaminase) for 90 min at 25 °C. Nonspecific binding was estimated in the presence of 50.0 μM NECA. Membranes were filtered and washed 3 times and the filters were counted to determine [^3H]CGS-21680 specifically bound. […] Membranes were filtered and washed 3 times and the filters were counted to determine [^3H]MRS1754 specifically bound. […]
(§2) IC50 values were determined by a nonlinear, least-squares regression analysis using MathIQ^TM (ID Business Solutions Ltd., Guildford, UK). Where inhibition constants (Ki) were presented, the Ki values were calculated using Cheng and Prusoff equation [18] using the observed IC50 of the compound, the concentration of radioligand employed in the assay, and the historical values for the KD of the ligand (obtained experimentally at Eurofins Panlabs, Inc.). The Hill coefficient (nH), which defines the slope of the competitive binding curve, was calculated using MathIQ^TM.

[2] = biological target: T2, A3 receptors (Homo sapiens, UniProt P0DMS8); test: radioligand binding to human A3 receptors, CHO-K1 membranes, [125I]AB-MECA
T2 construct: purchased PerkinElmer ES-012-M
T2 sequence (P0DMS8 1-318): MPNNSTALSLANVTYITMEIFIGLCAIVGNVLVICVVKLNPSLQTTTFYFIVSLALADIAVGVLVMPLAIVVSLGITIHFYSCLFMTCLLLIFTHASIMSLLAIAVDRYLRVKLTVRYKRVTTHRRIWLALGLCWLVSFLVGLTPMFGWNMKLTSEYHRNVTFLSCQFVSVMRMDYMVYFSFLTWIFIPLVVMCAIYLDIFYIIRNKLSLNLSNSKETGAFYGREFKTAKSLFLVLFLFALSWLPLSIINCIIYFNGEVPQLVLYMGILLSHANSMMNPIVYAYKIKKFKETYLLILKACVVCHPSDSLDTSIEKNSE
Protocol: as §1, §2

[3] = biological target: T3, hERG (Homo sapiens, UniProt Q12809); test: hERG manual patch clamp in hERG-expressing HEK cells; assay type: cell-based; conditions: read-out: hERG inhibition IC50
T3 construct: host or cells: HEK cells stably expressing hERG
T3 sequence (Q12809 whole entry): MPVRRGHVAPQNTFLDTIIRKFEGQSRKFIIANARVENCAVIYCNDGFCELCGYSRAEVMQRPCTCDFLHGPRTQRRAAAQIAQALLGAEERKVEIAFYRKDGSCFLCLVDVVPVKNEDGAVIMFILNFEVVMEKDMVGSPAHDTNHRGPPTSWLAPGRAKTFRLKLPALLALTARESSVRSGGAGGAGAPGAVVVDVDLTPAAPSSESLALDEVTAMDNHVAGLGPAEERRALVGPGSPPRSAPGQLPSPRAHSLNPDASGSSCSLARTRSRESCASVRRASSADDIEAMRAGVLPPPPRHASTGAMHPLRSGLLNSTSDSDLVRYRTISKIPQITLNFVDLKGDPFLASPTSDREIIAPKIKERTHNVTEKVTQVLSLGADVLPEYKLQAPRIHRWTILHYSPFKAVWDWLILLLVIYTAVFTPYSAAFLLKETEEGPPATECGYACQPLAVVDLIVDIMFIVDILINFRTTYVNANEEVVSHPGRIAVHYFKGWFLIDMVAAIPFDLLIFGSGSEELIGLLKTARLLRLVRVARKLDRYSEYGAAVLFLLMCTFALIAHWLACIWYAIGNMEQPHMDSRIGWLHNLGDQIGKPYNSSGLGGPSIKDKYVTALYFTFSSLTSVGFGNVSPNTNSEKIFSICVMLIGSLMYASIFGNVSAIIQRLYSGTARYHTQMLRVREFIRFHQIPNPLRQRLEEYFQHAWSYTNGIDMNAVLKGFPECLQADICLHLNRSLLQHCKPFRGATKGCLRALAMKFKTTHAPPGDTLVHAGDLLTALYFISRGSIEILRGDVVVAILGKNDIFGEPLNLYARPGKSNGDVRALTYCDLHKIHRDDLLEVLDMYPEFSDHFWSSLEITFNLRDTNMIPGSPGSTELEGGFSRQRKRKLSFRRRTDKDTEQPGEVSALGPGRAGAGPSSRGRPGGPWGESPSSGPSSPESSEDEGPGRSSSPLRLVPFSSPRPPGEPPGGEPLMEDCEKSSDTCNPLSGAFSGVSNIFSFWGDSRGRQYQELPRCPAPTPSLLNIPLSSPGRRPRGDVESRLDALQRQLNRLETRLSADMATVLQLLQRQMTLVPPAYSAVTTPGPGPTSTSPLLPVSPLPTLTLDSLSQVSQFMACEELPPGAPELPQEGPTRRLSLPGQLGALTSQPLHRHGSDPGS
Protocol: hERG (human-ether-a-go-go) liability was investigated in an hERG-expressing HEK cell line using the manual patch clamp method to assess the potential cardiotoxicity of 11o.
hERG ion channel-blocking profile of acute exposure to 11o was performed in stably expressing HEK cells at Nova Research Laboratories (New Orleans, LA, USA). Briefly, cloned equivalent of the human IKr, hERG, was used. Cells were obtained from Cytogentrics Bioscience GmbH (Jachim-Jungius-Strafe 9, 18,059 Rostock, Germany). Internal and external recording solutions as well as data acquisition and analysis were as previously described.

[4] = maximum tolerated dose, single oral administration, dog; conditions: both sexes, in vivo, single oral administration, male and female beagle dogs
Protocol: (§3) Rat and dog MTD studies were performed at Frontage Laboratories Inc following testing facility’s SOPs. All procedures described were reviewed and approved by the Institutional Animal Care and Use Committee (IACUC) at Frontage Laboratories Inc.
(§4) For dog MTD study, male and female beagle dogs (Canis familiaris) of 1.3 to 1.4 years of age were from Frontage Laboratories’ test facility stock colony, originally procured from Marshall BioResources (North Rose, NY, USA). The health status of the animals was reviewed by a staff veterinarian. Data collected on animals prior to release to study were maintained as testing facility records. Same dogs were used for each dose event. Animals received a single dose of 11o in 0.5% methyl cellulose via oral gavage starting from 50 mg/kg dose level in 5 mL/kg dose volume. Subsequent doses occurred 3 or 4 days following the previous dose and were increased based on findings from the previous dosing(s). The procedure continued until four dosing events occurred. Animals were fasted overnight prior to each dose administration with food provided approximately 4 h post-dose. Animals were observed once in the morning and once in the afternoon throughout the study for clinical observations. Body weights were measured on the day prior to dose administration. Data were collected and reported electronically using Provantis^TM (Instem LSS Ltd., Staffordshire, UK).

[5] = test system: beagle dogs; test: as above; conditions: in vivo, po
Protocol: as §3, §4

[6] = average of duplicate experiments

With Cc1cc(Cn2ncc3c(-c4cccc(C#N)c4F)nc(N)nc32)ccc1N [11o, 3-(6-Amino-1-(4-amino-3-methylbenzyl)-1H-pyrazolo[3,4-d]pyrimidin-4-yl)-2-fluorobenzonitrile] the “nH (Hill coefficient), A2B” value [1] was 0.98, the IC50 [1, 6] was 1220 nM and the Ki [1, 6] was 400 nM. For the same compound, the “nH (Hill coefficient), A3” value [2] was 0.44, the IC50 [2, 6] was 1130 nM and the Ki [2, 6] was 1050 nM. For the same compound, the IC50 [3] was 116000 nM, the MTD [4] was greater than 400 mg/kg and the “body weight change, female dogs” value [5] was −6.5%. The “body weight change, male dogs” value [5] was −5.7%.
